The values that follow are results of earlier work, collected in patent US20210154122A1, “TOPICAL COMPOSITION” (OTSUKA PHARMACEUTICAL CO., LTD., priority 2017, published 2021).

The test system of this series is keratocytes. The note with it: keratocytes treated with uridine; disclosed in Patent Document 5 (JP 2009-517380 A).

Consider `O=c1ccn([C@@H]2O[C@H](CO)[C@@H](O)[C@H]2O)c(=O)[nH]1` [uridine], for which the hyaluronic acid production entry is “promoted”.
